Like-named read-outs stand apart in the source and are kept apart here.
What was measured:
Sorghum = experiment: Ex46 PRE sorghum injury 7, 14, 21, 28 DAT; details: rate in the words
Procedure: Treatments were applied to sorghum at the time of planting using Pennington soil. Each treatment was replicated four times. Soil was watered before and after application for herbicide activation. Plants were watered and fertilized routinely. […] Visual percent crop injury was recorded at 7, 14, 21, and 28 days after treatment using a scale of 0 (no injury) to 100 (complete plant death).

Italian ryegrass = experiment: Ex36 POST 2,4-DC + metsulfuron-methyl, % control 28 DAT, Colby; format: in vivo, Lolium perenne L. ssp. multiflorum
Text: Crops screened were wheat and barley.

wheat [1] = experiment: Ex40 POST 2,4-DC + metsulfuron-methyl, crop injury 7 DAT; format: in vivo; details: POST
Procedure: (§1) Treatments were applied to barley and wheat crops.
(§2) Non-ionic surfactant (NIS) was added to all treatments at 0.5% v/v. All plant species were direct seeded into 3″ plastic pots using metro-mix as growth media. At treatment common lambsquarters was 1.75″, common chickweed was 2″, wild mustard was 2.25″, wild oat was 5.5″, wild buckwheat was 2-5″, Italian ryegrass was 2-3″, wheat was 5.5″ and barley was 4.5″ in height. Plants were watered well before application and not watered 24 h after application. Plants were watered and fertilized routinely after treatment application. Each treatment was replicated four times. Treated flats were placed in randomized block design in the greenhouse.

Barley [2] = experiment: as above; format: in vivo; details: POST
Procedure: as §1, §2

weeds; barley and wheat = experiment: Ex40 POST greenhouse; format: in vivo; details: rate in the words
Procedure: as §1, §2

weeds; Wheat and Barley = experiment: Ex41 POST greenhouse; format: in vivo; details: rate in the words
Procedure: (§3) Treatments were applied to wheat and barley crops.
(§4) Nonionic surfactant was added at 0.5% v/v in all treatments. Treatments were applied to wheat (5.5″), barley (5″), wild oat (5.5″), common chickweed (2″), wild buckwheat (3″), and common lambsquarters (2″). All plant species were direct seeded into 3″ plastic pots using metro-mix as growth media and pots were watered well before application and watered 24 h after application. Plants were watered and fertilized routinely after treatment application. Each treatment was replicated four times.

wheat [3] = format: in vivo; details: 14 DAT, POST
Procedure: as §3, §4

Barley [4] = format: in vivo; details: 14 DAT, POST
Procedure: as §3, §4

[5] = tested on: weeds; sweet corn, yellow corn, and sorghum; experiment: Ex31 PRE greenhouse; format: in vivo; details: weed and rate in the words
Text: Flats were watered and fertilized routinely after treatment application.

velvetleaf (VL) = experiment: Ex5 PRE greenhouse, % control; format: in vivo, Abutilon theophrasti; details: 28 DAT, g ai/ha by row: r10-26 2,4-DC 50/100/200 (3 rows each) + mesotrione 25/50/100 (cycling)
Procedure: (§5) Test compositions containing 2,4-DC Example 1C and mesotrione (Callisto® Herbicide, 40% active ingredient, Syngenta) and mixtures of 2-(2,4-dichlorophenyl)methyl-4,4-dimethyl-3-isoxazolidinone and mesotrione, were diluted with water to provide the appropriate test rate concentration.
(§6) The test weeds were barnyardgrass (BG) (Echinochloa crus-galli), jimsonweed (PA) (Datura stramonium), velvetleaf (VL) (Abutilon theophrasti), common cockelbur (CC) (Xanthium strumarium) and hairy beggarticks (HB) (Bidens pilosa). Crops included in the evaluation were field corn and sorghum.
(§7) For pre-emergence testing, four disposable fiber flats (6″ by 10″) for each rate of application of each herbicide solution were filled with top soil, to which seeds of each species were planted in furrows made by a template pressed on the top of the soil. The furrows with seeds were covered with soil and were watered well before application of the test compounds. Flats designated for treatment were placed in a spray chamber having a static platform and a movable sprayer and height of the spray nozzle was 10.5 inches above the soil level. Once the sprayer was calibrated using water for spray volume of 30 gallons per acre, flats were sprayed with sprayer at a speed to receive a coverage equivalent of 30 gallons per acre.
(§8) The application rates are those shown in Table 4 below for the individual herbicidal solutions and the herbicide compositions of the present invention. The pre-emergence flats were immediately placed in the greenhouse and watered lightly after treatment. Thereafter they were regularly watered and fertilized for the duration of the test. The control of weeds and injury to crops was evaluated in each experimental test at 28 days after treatment (DAT). […] Percent control was determined by a method similar to the 0 to 100 rating system disclosed in “Research Methods in Weed Science,” 2nd ed., B. Truelove, Ed.; Southern Weed Science Society; Auburn University, Auburn, Ala., 1977.

jimsonweed = experiment: Ex5 PRE greenhouse, % control; format: in vivo, Datura stramonium; details: 28 DAT, g ai/ha by row: r10-26 2,4-DC 50/100/200 (3 rows each) + mesotrione 25/50/100 (cycling)
Procedure: as §5, §6, §7, §8

[6] = tested on: sweet corn, yellow corn, and sorghum; details: PRE; crop and rate in the words
Text: Treatments were also applied ot sweet corn, yellow corn, and sorghum.
Treatments were applied before the emergence of Jimsonweed, velvetleaf, hairy beggarticks, common cocklebur, barnyardgrass, sweet corn, yellow corn, and sorghum. Plant species were planted in fiber flats (6″×10″) containing Pennington soil and flats were watered well before application and watered lightly after application. Flats were watered and fertilized routinely after treatment application.

weeds; Sugarcane (CTC20) = experiment: Ex23 PRE greenhouse; details: 28 DAT, weed and rate in the words
Procedure: (Ipomoea spp). The tested crop in this study was Sugarcane (CTC20).
Sugarcane was direct seeded into 6″ plastic pots using 3-4″ sugarcane setts, oriented bud up, with bud leaf shield removed. 2,4 DC and sulfentrazone were applied alone or combined as tank-mix at each rate mentioned below. […] Treatments were replicated 3 times. […] Thereafter flats were watered and fertilized routinely. […] Visual percent sugarcane injury was recorded at 21 and 28 DAT, using a scale of 0 (no injury, observed as bleaching, stunting or necrosis) to 100 (complete plant death).

[7] = tested on: weeds; Sugarcane (var. CTC 20); experiment: Ex17 PRE greenhouse; format: in vivo; details: weed and rate in the words
Procedure: In this example a study was conducted to determine weed efficacy and sugarcane injury when 2,4 DC or isoxaflutole are applied either alone or tank-mix as preemergence against the weeds: Ivyleaf morningglory (Ipomoea hederacea, IPOHE), hairy beggartickss (Bidens pilosa, BIDPI), yellow nutsedge (Cyperus esculentus, CYPES), large crabgrass (Digitaria sanguinalis, DIGSA), and redroot pigweed (Amaranthus retroflexus, AMARE). The crop tested in this study was Sugarcane (var. CTC 20).
To determine weed efficacy and sugarcane selectivity, 2,4 DC (SC 36%) and isoxaflutole (Balance Flexx®, 20%) were applied PRE either alone or as tank-mix partners at rates mentioned below. 2,4 DC was applied at 500, 750, and 1000 g ai/ha while isoxaflutole was applied at 80, 100, and 120 g ai/ha. […] Treatments were applied PRE to sugarcane (var. CTC 20), ivyleaf morningglory, hairy beggarticks, yellow nutsedge, large crabgrass, and redroot pigweed. Weed species were planted in fiber flats (6″×10″) containing Pennington soil. Soil was watered before application and watered lightly after application. Flats were watered and fertilized routinely after treatment application.

barnyardgrass (BG) = experiment: Ex5 PRE greenhouse, % control; format: in vivo, Echinochloa crus-galli; details: 28 DAT, g ai/ha by row: r10-26 2,4-DC 50/100/200 (3 rows each) + mesotrione 25/50/100 (cycling)
Procedure: as §5, §6, §7, §8

Common lambsquarters = experiment: Ex34 PRE 2,4-DC + napropamide, % control, Colby; format: in vivo, Chenopodium album; details: 28 DAT
Text: (§9) Thereafter flats were watered and fertilized routinely.

Blackgrass = experiment: Ex34 PRE 2,4-DC + napropamide, % control, Colby; format: in vivo, Alopecurus myosuroides; details: 28 DAT
Text: as §9

Littleseed canarygrass = experiment: Ex34 PRE 2,4-DC + napropamide, % control, Colby; format: in vivo, Phalaris minor; details: 28 DAT
Text: as §9

Wild buckwheat = experiment: Ex34 PRE 2,4-DC + napropamide, % control, Colby; format: in vivo, Polygonum convolvulus; details: 28 DAT
Text: as §9

weeds = experiment: Ex18 PRE greenhouse; format: in vivo; details: weed and rate in the words
Text: Additional treatments included application of metazachlor (Butisan®, 43.1%) at 750 g ai/ha, napropamide (Devrinol DF®, 50%) at 1260 g ai/ha, and dimethachlor (Teridox®, 48%) at 1000 g ai/ha. […] Treatments were applied just after the seeding of annual bluegrass, cheat, wild oat, quackgrass, field violet, blackgrass, littleseed canarygrass, silky windgrass, yellow foxtail, and goosegrass. […] Flats were watered and fertilized routinely after treatment application. Each treatment was replicated three times.

weeds; canola = experiment: Ex34 PRE greenhouse; format: in vivo; details: rate in the words
Text: as §9

Annual bluegrass = experiment: Ex34 PRE 2,4-DC + napropamide, % control, Colby; format: in vivo, Poa annua; details: 28 DAT
Text: as §9

[8] = thifensulfuron-methyl 50 g ai/ha
[9] = thifensulfuron-methyl 75 g ai/ha
[10] = thifensulfuron-methyl 100 g ai/ha
[11] = r28-30 2,4-DC 50/100/200, r31-33 mesotrione 25/50/100, 25 g ai/ha
[12] = r28-30 2,4-DC 50/100/200, r31-33 mesotrione 25/50/100, 50 g ai/ha
[13] = r28-30 2,4-DC 50/100/200, r31-33 mesotrione 25/50/100, 100 g ai/ha

## CC1(C)CON(Cc2cc(Cl)ccc2Cl)C1=O [2,5-DC, 2-(2,5-dichlorophenyl)methyl-4,4-dimethyl-3-isoxazolidinone]
Sorghum
  sorghum safety in words: safe on sorghum at rates ranging from 31 to 125 g ai/ha irrespective of rating timings

## COC(=O)c1ccccc1S(=O)(=O)NC(=O)Nc1nc(C)nc(OC)n1 [Metsulfuron-methyl, metsulfuron-methyl, reference compound]
Italian ryegrass; metsulfuron-methyl alone 6 g ai/ha
  Y: 6%
Italian ryegrass; metsulfuron-methyl alone 9 g ai/ha
  Y: 18%
Italian ryegrass; metsulfuron-methyl alone 12 g ai/ha
  Y: 16%
Wheat [1]; metsulfuron-methyl 2 g ai/ha
  Y (% crop injury, metsulfuron-methyl alone): 1%
Wheat [1]; metsulfuron-methyl 3 g ai/ha
  Y (% crop injury, metsulfuron-methyl alone): 0%
Wheat [1]; metsulfuron-methyl 4 g ai/ha
  Y (% crop injury, metsulfuron-methyl alone): 2%
Barley [2]; metsulfuron-methyl 2 g ai/ha
  Y (% crop injury, metsulfuron-methyl alone): 5%
Barley [2]; metsulfuron-methyl 3 g ai/ha
  Y (% crop injury, metsulfuron-methyl alone): 7%
Barley [2]; metsulfuron-methyl 4 g ai/ha
  Y (% crop injury, metsulfuron-methyl alone): 9%
weeds; barley and wheat
  weed control / crop safety in words: alone controlled wild buckwheat, common chickweed, wild mustard, and common lambsquarters at all rates and was safe on both crops at all rates

## COC(=O)c1sccc1S(=O)(=O)NC(=O)Nc1nc(C)nc(OC)n1 [Thifensulfuron-methyl, thifensulfuron-methyl, reference compound]
weeds; Wheat and Barley
  weed control / crop safety in words: alone controlled all weeds except wild oat, and was safe on both crops
Wheat [3]; [8]
  % crop injury for Thifensulfuron-M alone: 0%
Wheat [3]; [9]
  % crop injury for Thifensulfuron-M alone: 0%
Wheat [3]; [10]
  % crop injury for Thifensulfuron-M alone: 1%
Barley [4]; [8]
  % crop injury for Thifensulfuron-M alone: 2%
Barley [4]; [9]
  % crop injury for Thifensulfuron-M alone: 2%
Barley [4]; [10]
  % crop injury for Thifensulfuron-M alone: 2%

## CS(=O)(=O)c1ccc(C(=O)C2C(=O)CCCC2=O)c([N+](=O)[O-])c1 [mesotrione]
[5]
  weed control in words: alone gave control of velvetleaf and Jimsonweed at medium or highest rate while it controlled cocklebur and hairy beggarstick at the highest rate only
Velvetleaf (VL); [11]
  % Control VL: 73%
Velvetleaf (VL); [12]
  % Control VL: 87%
Velvetleaf (VL); [13]
  % Control VL: 100%
jimsonweed; [11]
  % Control JW: 68%
jimsonweed; [12]
  % Control JW: 90%
jimsonweed; [13]
  % Control JW: 93%
[6]
  crop safety in words: alone was safe on sweet corn and yellow corn at all three rates; safe on sorghum at 25 and 50 g
weeds; Sugarcane (CTC20)
  weed control in words: at 105 g controlled all weeds except morningglory
[7]
  weed control in words: at 105 g controlled all weeds except ivyleaf morningglory
Barnyardgrass (BG); [11]
  % Control BG: 48%
Barnyardgrass (BG); [12]
  % Control BG: 61%
Barnyardgrass (BG); [13]
  % Control BG: 73%

## CCN(CC)C(=O)C(C)Oc1cccc2ccccc12 (stereo not drawn) [napropamide, reference compound]
Common lambsquarters; Napropamide alone 315 g ai/ha
  Y: 50%
Common lambsquarters; Napropamide alone 630 g ai/ha
  Y: 73%
Common lambsquarters; Napropamide alone 1260 g ai/ha
  Y: 91%
Blackgrass; Napropamide alone 315 g ai/ha
  Y: 5%
Blackgrass; Napropamide alone 630 g ai/ha
  Y: 7%
Blackgrass; Napropamide alone 1260 g ai/ha
  Y: 15%
Littleseed canarygrass; Napropamide alone 315 g ai/ha
  Y: 50%
Littleseed canarygrass; Napropamide alone 630 g ai/ha
  Y: 87%
Littleseed canarygrass; Napropamide alone 1260 g ai/ha
  Y: 100%
Wild buckwheat; Napropamide alone 315 g ai/ha
  Y: 23%
Wild buckwheat; Napropamide alone 630 g ai/ha
  Y: 23%
Wild buckwheat; Napropamide alone 1260 g ai/ha
  Y: 38%
weeds
  weed control in words: controlled all weeds except blackgrass
weeds; canola
  weed control / crop safety in words: alone at 630 g controlled littleseed canarygrass, at 1260 g controlled common lambsquarters, annual bluegrass and Italian ryegrass and was safe on canola at all rates
Annual bluegrass; Napropamide alone 315 g ai/ha
  Y: 1%
Annual bluegrass; Napropamide alone 630 g ai/ha
  Y: 77%
Annual bluegrass; Napropamide alone 1260 g ai/ha
  Y: 92%
